Assay in all cases: NCI-60 cell line screen, 48 h
For assay [1], the system named is NCI-H460 lung.
Assay [2] deals with SF-268 CNS.
Assay [3] deals with RXF 393 renal.
Assay [4] concerns NCI-H226 lung.
Assay [5] relates to MDA-N.
In assay [6] the test system is DU-145 prostate.
Assay [7] relates to RPMI-8226 leukemia.
Assay [8] relates to KM12 colon.
In assay [9] the test system is UO-31 renal.
Assay [10] deals with SK-MEL-2 melanoma.
Assay [11] relates to EKVX NSCLC.
In assay [12] the test system is HL-60(TB) leukemia.

The text below walks through data of PubChem BioAssay (NCI).

Where “and” joins values, the source holds several entries; their conditions need not be identical. Equal entries are not always repeated.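 Growth conditions: 96-well plates. Treatment: test compound, 48 hours, 5 concentrations. Analysis: linear interpolation between bracketing concentrations; unreached endpoints set to highest concentration. At the GI50, growth is halved. TGI: concentration producing complete growth inhibition.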 Where only a bound is given, the exact number is not on record here.

As to `CCCCc1cc2c(cc1O)CCC1C2CC[C@@]2(C)C1CC[C@@H]2O` (stereo not given in full), the TGI in assay [1] stood at 63.5 µM; in assay [2], 89 µM; in [3] it was 22.2 µM; in assay [4], 40.6 µM; in [5], 51.2 µM; in assay [6], 35.3 µM. The TGI in assay [7] is 39.1 µM; in assay [8], 32.4 µM; in assay [9], 38 µM; in assay [10] it was 38.1 µM; in [11], 33.6 µM.

Regarding `Cc1cc2nc3c(C#N)c(-c4ccccc4)/c(=C\Nc4cccc(C(F)(F)F)c4)c(=O)n3c2cc1C`, the TGI in [1], in assay [2], in assay [3], in assay [4], in assay [5] and in [7] was more than 100 µM throughout. Further, the TGI in assay [8], in [9], in assay [10] and in assay [11] was more than 100 µM each time.

Regarding `COc1ccc2cc(C(=O)NCCc3ccccc3)ccc2c1OC`, the TGI is more than 100 µM in assay [1]; more than 100 µM in assay [2]; 70.7 µM in [3]; more than 100 µM in assay [4]; more than 100 µM in assay [5]; more than 100 µM in assay [6]. Also, the TGI in assay [7], in [10] and in assay [11] was more than 100 µM in each case.

For `N=C(/C=C/c1ccc(-c2cn3cc(/C=C/C(=N)N4CCOCC4)ccc3n2)cc1)N1CCOCC1`, the TGI in assay [1], in [2], in assay [3], in assay [4], in assay [5] and in assay [6] was more than 100 µM throughout. Also, the TGI in [7], in assay [8], in assay [9], in [10] and in assay [11] was more than 100 µM in each case.

For `CC(=O)OCC1OC(n2c(-c3ccccc3)c(N=Nc3ccc(Cl)cc3)c(C)c(C#N)c2=S)C(OC(C)=O)C(OC(C)=O)C1OC(C)=O` (stereo not given), the GI50 in assay [1] was 5.26 µM and 51.2 µM; in assay [2] it was 14.7 µM and 39.3 µM; in assay [6], 25.3 µM and > 100 µM; in assay [7], 6.64 µM and 37.9 µM; in [8], 9.22 µM and 85.4 µM; in assay [9], 5.87 µM and 47.3 µM. For the same compound, the GI50 in [12] is 23 µM and 8.03 µM. Moreover, the TGI in assay [1] is more than 100 µM; in assay [2], more than 100 µM; in [3], 35.6 µM and 48.8 µM; in assay [5], more than 100 µM; in [6] it was more than 100 µM; in [7] it was more than 100 µM. Further, the TGI is 24.4 µM and > 100 µM in assay [8]; 27.1 µM and > 100 µM in [9]; 39.6 µM and > 100 µM in assay [10]; more than 100 µM in assay [12].

For the compound `Cc1ccc(S(=O)(=O)OC2CN3CCC2CC3)cc1` (stereo not given), the TGI in assay [1], in assay [2], in assay [3], in assay [4], in assay [6] and in assay [7] was more than 100 µM each time. For the same compound, the TGI in assay [8], in assay [9], in assay [10], in assay [12] and in assay [11] was more than 100 µM throughout.

Regarding `CC(C)(C)[Si](C)(C)OCC1OC(n2ccc(=O)[nH]c2=O)C(O[Si](C)(C)C(C)(C)C)/C1=N/O` (stereo not given), the TGI in [1] is 12.5 µM; in assay [3], 23.3 µM; in [4], 9.24 µM; in [5], more than 36.2 µM; in assay [6] it was 28.5 µM; in [7], 7.75 µM. Also, the TGI was more than 22.6 µM in [8], 14.5 µM in assay [9], 9.48 µM in assay [10] and 16.1 µM in [11].

In the case of `COC(=O)c1nc2c(C)c(O)c(O)c([C@H](C)CCC=C(C)C)c2o1`, the TGI in [1] is more than 100 µM; in assay [2], more than 100 µM; in assay [3], 39.6 µM; in assay [4] it was 34.2 µM; in assay [6], more than 100 µM; in assay [7], more than 100 µM. Also, the TGI in assay [8] is 67.4 µM; in assay [9], 41.5 µM; in [10], 59.7 µM; in [12], 45.6 µM; in [11] it was more than 100 µM.

`S=C1c2cc(Cl)ccc2NC(=NC2CCCC2)C2CSCN12` (stereo not given): the TGI in assay [1], in assay [2], in assay [3], in [4], in assay [5] and in assay [6] was more than 100 µM throughout. The TGI in assay [7], in assay [8], in assay [9], in assay [10] and in [11] was more than 100 µM each time.

Regarding `Cc1cccc(Nc2cn(CCOc3ccccc3)c(=O)[nH]c2=O)c1`, the TGI in assay [1], in assay [2], in assay [3], in assay [5], in assay [6] and in assay [7] was more than 100 µM each time. In addition, the TGI in assay [8] was more than 100 µM; in [9] it was more than 100 µM; in [11], 39.8 µM.

With `c1ccc(/C(=N/Nc2cnccn2)c2ncccn2)cc1`, the TGI in assay [1], in [2], in [3], in [5], in assay [6] and in assay [7] was more than 100 µM in each case. In addition, the TGI in assay [8], in assay [9], in [10] and in assay [11] was more than 100 µM throughout.

As for `C#CCNC(Cc1ccccc1)C(=O)O` (stereo not given), the TGI in [1], in assay [2], in [3], in [4], in [6] and in assay [7] was more than 100 µM each time. The TGI in assay [8], in assay [9], in assay [10], in assay [12] and in assay [11] was more than 100 µM in each case.

For the compound `Cc1[nH]n(C(=O)c2ccccc2O)c(=O)c1/C=C1\C(=O)C=Cc2ccccc21`, the TGI in assay [1] was 9.94 µM; in [2], 31 µM; in assay [3], 18.8 µM; in [4], 8.57 µM; in assay [5] it was more than 100 µM; in assay [6], 48.6 µM. Besides, the TGI in [7] was 31.1 µM; in assay [8], more than 74.1 µM; in [9], 13.2 µM; in [10], 17.2 µM; in [11], 19.4 µM.

For the compound `NS(=O)(=O)c1ccc(CNC(=S)NC(=O)Nc2ccc(Cl)c(Cl)c2)cc1`, the TGI was 94 µM in assay [1]; 52.8 µM in assay [2]; 84.7 µM in assay [3]; 46.4 µM in [5]; more than 100 µM in [6]; 41.6 µM in assay [7]. The TGI was 43.1 µM in assay [8], 32.5 µM in assay [9] and 31.4 µM in assay [10].

In the case of `C=C1C(=O)OC2C(C)C3C=CC(=O)[C@@]3(C)C(OC(=O)/C(C)=C/C)C1[C@@H]2OC(C)=O` (stereo not given in full), the TGI in assay [1] was determined as 1.33 µM; in assay [2], 3.22 µM; in assay [3] it was 0.61 µM; in assay [4], 4.42 µM; in assay [5] it was 0.738 µM; in assay [6], 3.23 µM. The TGI in [7] worked out at 3.16 µM; in assay [8], 3.68 µM; in assay [9], 2.48 µM; in [10], 1.18 µM; in [11], 1.27 µM.

For `Cc1nc2c(=O)[nH]c(=O)nc-2n(CCO)c1C`, the TGI in assay [1], in [2], in assay [3], in [4], in assay [5] and in [6] was more than 100 µM each time. Further, the TGI in assay [7], in assay [8], in [9], in assay [10] and in assay [11] was more than 100 µM each time.

As for `CC(=O)NC1C(OCC(=O)NC(C)C(=O)NC(CCC(=O)NCCCCCNc2ccc([N+](=O)[O-])c3[nH]c4ccccc4c(=O)c23)C(N)=O)C(O)C(CO)OC1(C)OCc1ccccc1` (stereo not given), the TGI in assay [1] was more than 50 µM; in assay [2] it was more than 50 µM; in [3], 19.5 µM; in assay [4], more than 50 µM; in assay [5], more than 50 µM; in assay [6], more than 50 µM. Also, the TGI is 36.6 µM in assay [7]; more than 50 µM in assay [8]; more than 50 µM in assay [9]; more than 50 µM in [10]; more than 50 µM in assay [11].

Turning to `CCCCN(CCCC)CC(=O)c1ccc2cc(Cl)c3ccccc3c2c1`, the TGI was 52.1 µM in assay [1]; 42.1 µM in [2]; 46.2 µM in [3]; 89.5 µM in assay [4]; more than 100 µM in assay [6]; more than 100 µM in assay [7]. Also, the TGI in assay [8] was more than 100 µM; in assay [9], 50.4 µM; in assay [10] it was 69.9 µM; in [12] it was more than 100 µM; in assay [11] it was more than 100 µM.
